From PubChem BioAssay AID463199 (Broad Institute, 2010)
Calls of active or inactive are those of the source.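 How the source made its calls: active means AC50, the dose giving half-maximal effect, exceeds a fixed cutoff for a compound that rescues yeast growth under heat; inactive means the rest, inconclusive results apart.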

system: S. cerevisiae Burl-1 ts mutant growth, BacTiter-Glo, 38.5C 24 h; assay: growth induction of Burl-1 ts yeast mutant, dose response, counter-screen for SUMOylation pathway inhibitor project, whole organism, S. cerevisiae, luminescence (AID 463199)

SMILES | AC50
CC(C)(C)C(=O)NC1(C(F)(F)F)NC(=O)N(c2ccccc2F)C1=O (stereo not given) | > 42 µM (inactive)
CCc1nnc(NC(=O)c2cccc(S(=O)(=O)N3CCN(c4ccccc4)CC3)c2)s1 | > 42 µM (inactive)
CN(CP(=O)(O)C(O)c1ccccc1)S(C)(=O)=O (stereo not given) | > 42 µM (inactive)
CCSc1nc2ccccc2c(=O)n1C1CCOC(C)(C)C1 (stereo not given) | > 42 µM (inactive)
Cc1nc(N)c(Cc2ccccc2F)c(N)n1 | > 42 µM (inactive)
COC(=O)c1sccc1NC(=O)CC1C(=O)NCCN1C(=O)Nc1ccc(F)cc1F (stereo not given) | > 42 µM (inactive)
Cc1cccc(N=Nc2ccc(N(C)C)cc2)c1 | > 42 µM (inactive)
CN(C(=O)c1ccc(-c2nn(C)c(=O)c3ccccc23)cc1)C1CCCCC1 | > 42 µM (inactive)
CCOc1ccccc1CN1CCNC(=O)C1CC(=O)NCCN1CCOC1=O (stereo not given) | > 42 µM (inactive)
O=C(Nc1nc2ccccc2s1)c1cccc(S(=O)(=O)N2CCc3ccccc32)c1 | > 42 µM (inactive)
Cc1ccc(-n2nc3c(=O)n(CCCC(=O)NCc4cccc(F)c4)nc(C)c3c2C)cc1 | > 42 µM (inactive)
CN(C)S(=O)(=O)c1cc(NC(=O)CSc2nn(-c3ccc(Cl)cc3)c(=S)s2)ccc1Cl | > 42 µM (inactive)
Cc1cnc(=O)[nH]c1SCC(=O)c1ccc(F)cc1 | > 42 µM (inactive)
Cc1ccc(NC(=O)CCS(=O)(=O)c2ccc3nc(C)sc3c2)cc1 | > 42 µM (inactive)
Cc1cc2c(C)ccc(C)c2nc1SCC(=O)c1cccs1 | > 42 µM (inactive)
CCOC(=O)c1c(C)[nH]c(O)c1C=Nc1ccccc1 | > 42 µM (inactive)
FC(F)(F)c1nnc(-c2ccccc2)nc1Oc1ccc(Cl)cc1Cl | > 42 µM (inactive)
COc1ccc(-c2csc(NC(=O)CS(=O)(=O)c3ccc(F)cc3)n2)cc1OC | > 42 µM (inactive)
COc1cccc(OC)c1C(=O)N1CCN(Cc2ccccc2C)CC1 | > 42 µM (inactive)
N#CCC(=O)N/N=C/c1ccc(OS(=O)(=O)c2ccccc2)cc1 | > 42 µM (inactive)
O=C(COC(=O)c1ccc([N+](=O)[O-])s1)c1ccc[nH]1 | > 42 µM (inactive)
O=C(CS(=O)c1ccc(C(F)(F)F)cc1[N+](=O)[O-])Oc1ccc(Cl)cc1 (stereo not given) | > 42 µM (inactive)
Clc1ccc(CNCc2cccs2)cc1Cl | > 42 µM (inactive)
COC(=O)C1C2C=CC3(CN(CCc4ccccc4)C(=O)C13)O2 (stereo not given) | > 21 µM (inactive)
Cc1nc2ccccc2c2ncccc12 | > 42 µM (inactive)

SMILES | AC50
COc1ccc(S(=O)(=O)n2nc(-c3ccc(Cl)cc3)cc2N)cc1OC | > 42 µM (inactive)
CCN1CCCC1CN(Cc1cc2ccc(C)cc2[nH]c1=O)C(=S)Nc1ccccc1C(=O)OC (stereo not given) | > 42 µM (inactive)
O=C(NCC1CCN(Cc2ccccc2Cl)CC1)Nc1ccccc1F | > 42 µM (inactive)
COC(=O)c1ccc2[nH]c(C(C)(C)O)c(C)c2c1 | > 42 µM (inactive)
O=C1Nc2ccccc2/C1=C/c1ccc([N+](=O)[O-])cc1 | > 42 µM (inactive)
O=S1(=O)C=C(Sc2nnc(-c3ccccc3)o2)c2ccccc21 | 8.23 µM
O=C(CSc1ncccc1C(=O)O)NC1CCCCC1 | > 42 µM (inactive)
Cc1ccc(S(=O)(=O)NC2CCCCCCC2)cc1 | > 42 µM (inactive)
Cc1nc(N/N=C\c2ccc3c(c2)OCO3)sc1C | > 42 µM (inactive)
COc1ccccc1N1C(=O)c2ccccc2NC1C(OC)OC (stereo not given) | > 42 µM (inactive)
CCOc1ccc2nc(CN3CCN(Cc4ccccc4OCC)C(CCO)C3)ccc2c1 (stereo not given) | > 42 µM (inactive)
Cc1cnc(C(=O)OCC(=O)Nc2ccc(C)c(S(=O)(=O)N(C)C)c2)cn1 | > 42 µM (inactive)
CN(C(=O)COc1cc(=O)n(C)c2ccccc12)c1ccc(Cl)cc1 | > 42 µM (inactive)
C=CCN1C(=O)/C(=C\c2ccc(C)cc2)N=C1SCC(=O)NCCC | > 42 µM (inactive)
Cc1ccc(-n2c(-c3ccco3)nc3c(cnn3-c3ccc(C)cc3)c2=O)cc1 | > 42 µM (inactive)
CCOC(=O)N1CCC(Nc2nc3ccccc3n3nnnc23)CC1 | > 42 µM (inactive)
O=C(c1cccnc1)N1CCCC(Nc2ccc(F)cc2)C1 (stereo not given) | > 42 µM (inactive)
CC(C)(C)NC(=O)NC(=O)CN1CCN(S(=O)(=O)c2ccc3c(c2)OCCO3)CC1 | > 21 µM (inactive)
CC1=C(C)CS(=O)N(S(=O)(=O)c2ccc(Cl)cc2)C1 (stereo not given) | 12.1 µM
Cc1nc(CSc2nnc3scc(-c4ccccc4)n23)cs1 | > 42 µM (inactive)
COc1cc(/C=N/NC(=O)c2cccnc2)ccc1OCC(=O)N1CCOCC1 | > 42 µM (inactive)
CCOC(=O)c1c(/N=C/C2C(=O)CCCC2=O)sc2c1CCCC2 | > 42 µM (inactive)
O=C(N/C(=C/c1ccc2c(c1)OCO2)C(=O)N1CCOCC1)c1cccs1 | > 42 µM (inactive)
COC(=O)[C@@]12CCCCN1[C@H](c1ccc(-c3ccc(C(C)=O)cc3)cc1)[C@@H]1C(=O)N(C)C(=O)[C@@H]12 | > 42 µM (inactive)
CCN(CC)c1ccc2c(C)c(CN3CCOCC3)c(=O)oc2c1 | > 42 µM (inactive)
